According to patent US11078202B2, “β-lactamase inhibitor and use thereof” (priority 2018, dated 2021):
Counter-ions that a name gives are not always drawn.

Tests used:
Format in all cases: cell-based
[1] = system: Klebsiella pneumoniae XNWB 0002; assay: MIC assay of test compounds combined with imipenem (4 μg/mL); settings: imipenem 4 μg/mL fixed
How it was run: (§1)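 Here, growth inhibition was scored visually following CLSI guidelines once plates containing compound, fixed-dose β-lactam and diluted inoculum had stood 16-20 h at 35±2 °C. Cells were taken from TSA colonies, brought to OD600 0.1-0.15 in 0.9% NaCl, then diluted 300-fold in 1.1×CAMHB.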

[2] = system: Klebsiella pneumoniae XNWB 0003; assay: as above; settings: imipenem 4 μg/mL fixed
How it was run: as §1

[3] = system: Acinetobacter baumannii XNWB 0007; assay: as above; settings: imipenem 4 μg/mL fixed
How it was run: as §1

[4] = system: Klebsiella pneumoniae XNWB 0004; assay: as above; settings: imipenem 4 μg/mL fixed
How it was run: as §1

[5] = system: Klebsiella pneumoniae XNWB 0006; assay: as above; settings: imipenem 4 μg/mL fixed
How it was run: as §1

[6] = system: Klebsiella pneumoniae XNWB 0001; assay: as above; settings: imipenem 4 μg/mL fixed
How it was run: as §1

[7] = system: Klebsiella pneumoniae XNWB 0005; assay: as above; settings: imipenem 4 μg/mL fixed
How it was run: as §1

[8] = system: Pseudomonas aeruginosa XNWB 0008; assay: as above; settings: imipenem 4 μg/mL fixed
How it was run: as §1

[9] = system: Klebsiella pneumoniae XNWB 0002; assay: MIC assay of test compounds combined with ceftazidime (8 μg/mL); settings: ceftazidime 8 μg/mL fixed
How it was run: as §1

[10] = system: Klebsiella pneumoniae XNWB 0003; assay: as above; settings: ceftazidime 8 μg/mL fixed
How it was run: as §1

[11] = system: Acinetobacter baumannii XNWB 0007; assay: as above; settings: ceftazidime 8 μg/mL fixed
How it was run: as §1

[12] = system: Klebsiella pneumoniae XNWB 0004; assay: as above; settings: ceftazidime 8 μg/mL fixed
How it was run: as §1

[13] = system: Klebsiella pneumoniae XNWB 0006; assay: as above; settings: ceftazidime 8 μg/mL fixed
How it was run: as §1

[14] = system: Klebsiella pneumoniae XNWB 0001; assay: as above; settings: ceftazidime 8 μg/mL fixed
How it was run: as §1

[15] = system: Klebsiella pneumoniae XNWB 0005; assay: as above; settings: ceftazidime 8 μg/mL fixed
How it was run: as §1

[16] = system: Pseudomonas aeruginosa XNWB 0008; assay: as above; settings: ceftazidime 8 μg/mL fixed
How it was run: as §1

SMILES | The minimum concentration of test compounds combined with imipenem (4 μg/mL) for bacteriostasis [1] | The minimum concentration of test compounds combined with imipenem (4 μg/mL) for bacteriostasis [2] | The minimum concentration of test compounds combined with imipenem (4 μg/mL) for bacteriostasis [3] | The minimum concentration of test compounds combined with imipenem (4 μg/mL) for bacteriostasis [4] | The minimum concentration of test compounds combined with imipenem (4 μg/mL) for bacteriostasis [5] | The minimum concentration of test compounds combined with imipenem (4 μg/mL) for bacteriostasis [6] | The minimum concentration of test compounds combined with imipenem (4 μg/mL) for bacteriostasis [7] | The minimum concentration of test compounds combined with imipenem (4 μg/mL) for bacteriostasis [8] | The minimum concentration of test compounds combined with ceftazidime (8 μg/mL) for bacteriostasis [9] | The minimum concentration of test compounds combined with ceftazidime (8 μg/mL) for bacteriostasis [10] | The minimum concentration of test compounds combined with ceftazidime (8 μg/mL) for bacteriostasis [11] | The minimum concentration of test compounds combined with ceftazidime (8 μg/mL) for bacteriostasis [12] | The minimum concentration of test compounds combined with ceftazidime (8 μg/mL) for bacteriostasis [13] | The minimum concentration of test compounds combined with ceftazidime (8 μg/mL) for bacteriostasis [14] | The minimum concentration of test compounds combined with ceftazidime (8 μg/mL) for bacteriostasis [15] | The minimum concentration of test compounds combined with ceftazidime (8 μg/mL) for bacteriostasis [16]
O=C1N2C[C@H](N1OS(=O)(=O)O)C1(CC1)C[C@H]2c1cc(CC2CNC2)on1 [Example 49, (1R,4S)-4-(5-(azetidin-3-ylmethyl)isoxazol-3-yl)-6-oxo-5,7-diazaspiro[bicycle[3.2.1]octane-2,1′-cyclopropan]-7-yl sulfate] | A (A: <8 μg/mL) | A (A: <8 μg/mL) | C (C: 16-128 μg/mL) | A (A: <8 μg/mL) | A (A: <8 μg/mL) | A (A: <8 μg/mL) | A (A: <8 μg/mL) | A (A: <8 μg/mL) | A (A: <8 μg/mL) | A (A: <8 μg/mL) | C (C: 16-128 μg/mL) | B (B: 8-16 μg/mL) | A (A: <8 μg/mL) | A (A: <8 μg/mL) | A (A: <8 μg/mL) | B (B: 8-16 μg/mL)
O=C1N2C[C@H](N1OS(=O)(=O)O)C1(CC1)C[C@H]2c1cc(COC2CNC2)on1 [Example 50, (1R,4S)-4-(5-((azetidin-3-yloxy)methyl)isoxazol-3-yl)-6-oxo-5,7-diazaspiro[bicycle [3.2.1]octane-2,1′-cyclopropan]-7-yl sulfate] | A (A: <8 μg/mL) | A (A: <8 μg/mL) | C (C: 16-128 μg/mL) | A (A: <8 μg/mL) | A (A: <8 μg/mL) | A (A: <8 μg/mL) | A (A: <8 μg/mL) | A (A: <8 μg/mL) | A (A: <8 μg/mL) | A (A: <8 μg/mL) | C (C: 16-128 μg/mL) | B (B: 8-16 μg/mL) | A (A: <8 μg/mL) | A (A: <8 μg/mL) | A (A: <8 μg/mL) | B (B: 8-16 μg/mL)
N=C(N)N1CC(NCc2cc([C@@H]3CC4(CC4)[C@@H]4CN3C(=O)N4OS(=O)(=O)O)no2)C1 [Example 51, (1R,4S)-4-(5-(((1-amidinoazetidin-3-yl)amino)methyl)isoxazol-3-yl)-6-oxo-5,7-diazaspiro[bicyclo[3.2.1]octane-2,1′-cyclopropan]-7-yl sulfate] | A (A: <8 μg/mL) | A (A: <8 μg/mL) | C (C: 16-128 μg/mL) | A (A: <8 μg/mL) | A (A: <8 μg/mL) | A (A: <8 μg/mL) | A (A: <8 μg/mL) | A (A: <8 μg/mL) | A (A: <8 μg/mL) | B (B: 8-16 μg/mL) | C (C: 16-128 μg/mL) | C (C: 16-128 μg/mL) | A (A: <8 μg/mL) | A (A: <8 μg/mL) | B (B: 8-16 μg/mL) | B (B: 8-16 μg/mL)
N=C(N)NCCNCCc1cc([C@@H]2CC3(CC3)[C@@H]3CN2C(=O)N3OS(=O)(=O)O)no1 [Example 53, (1R,4S)-4-(5-(2-((2-guanidinoethyl)amino)ethyl)isoxazol-3-yl)-6-oxo-5,7-diazaspiro [bicyclo[3.2.1]octane-2,1′-cyclopropan]-7-yl sulfate] | A (A: <8 μg/mL) | A (A: <8 μg/mL) | C (C: 16-128 μg/mL) | A (A: <8 μg/mL) | A (A: <8 μg/mL) | A (A: <8 μg/mL) | A (A: <8 μg/mL) | A (A: <8 μg/mL) | A (A: <8 μg/mL) | A (A: <8 μg/mL) | C (C: 16-128 μg/mL) | B (B: 8-16 μg/mL) | A (A: <8 μg/mL) | A (A: <8 μg/mL) | A (A: <8 μg/mL) | B (B: 8-16 μg/mL)
O=C1N2C[C@H](N1OS(=O)(=O)O)C1(CC1)C[C@H]2c1ccon1 [Example 54, (1R,4S)-4-(isoxazol-3-yl)-6-oxo-5,7-diazaspiro[bicyclo[3.2.1]octane-2,1′-cyclopropan]-7-yl sulfate] | A (A: <8 μg/mL) | A (A: <8 μg/mL) | C (C: 16-128 μg/mL) | A (A: <8 μg/mL) | A (A: <8 μg/mL) | A (A: <8 μg/mL) | A (A: <8 μg/mL) | C (C: 16-128 μg/mL) | A (A: <8 μg/mL) | B (B: 8-16 μg/mL) | C (C: 16-128 μg/mL) | C (C: 16-128 μg/mL) | A (A: <8 μg/mL) | B (B: 8-16 μg/mL) | C (C: 16-128 μg/mL) | C (C: 16-128 μg/mL)
